{"source": "patent US20130316965A1", "about": "“IDRABI[…] THE TREATMENT OF PULMONARY EMBOLISM AND FOR THE SECONDARY PREVENTION OF VENOUS THRO[…]” (priority 2011, published 2013)", "key": {"[1]": {"tested_on": "patients with pulmonary embolism", "conditions": "human, in vivo; cited from earlier work"}, "[2]": {"tested_on": "patients with symptomatic pulmonary embolism with or without symptomatic deep venous thrombosis", "test": "CASSIOPEA (EFC6034) phase III clinical trial: benefit-risk assessment (PE, DVT or major bleeding composite)", "format": "in vivo, human", "conditions": "Randomized population; composite endpoint", "description": "Tables 13 and 14 show the incidence of pulmonary embolism, deep venous thrombosis or major bleedings (composite endpoint) in the randomized population in the treatment phase (3-month or 6-month treatment with idrabiotaparinux) and up to the end of the study (assessment at 12 months)."}, "[3]": {"tested_on": "patients with symptomatic pulmonary embolism with or without symptomatic deep venous thrombosis", "test": "CASSIOPEA (EFC6034) phase III clinical trial: deaths", "format": "in vivo, human", "conditions": "overall", "description": "(§1) A blinded central and independent adjudication committee (CIAC) assesses PE (and DVT when applicable), all episodes of locally confirmed or doubtful PE/DVT recurrences, clinically relevant bleedings and deaths. Adjudication results are the basis for the final analyses."}, "[4]": {"tested_on": "patients with symptomatic pulmonary embolism with or without symptomatic deep venous thrombosis", "test": "CASSIOPEA (EFC6034) phase III clinical trial: clinically relevant bleeding (safety)", "format": "in vivo, human", "description": "According to the instant invention, the term “bleedings” designates any clinically relevant bleeding (i.e. major or clinically relevant non-major hemorrhage).\nAccording to the instant invention, the term “major bleedings” designates any of the following clinical situations: • bleeding associated with a fall in hemoglobin of 2 g per deciliter or more, • bleeding that led to a transfusion of 2 or more units of packed red cells or whole blood (a red cell unit being defined as the quantity of red cells obtained from or corresponding to approximately 500 ml of whole blood), • bleeding that involved a critical organ (intracranial, intraocular, intraspinal, retroperitoneal or pericardial), • bleeding that contributed to death.\nas §1\nThe principal safety outcome is any clinically relevant bleeding as classified by the CIAC (i.e. major bleeding and other clinically relevant non-major bleeding).\nBleeding analyses are also performed on the—All-randomized—population. Other safety analyses are performed on the—All-treated—population.\nRates of clinically relevant bleedings are calculated in each treatment group at 3 months (99 days) and 6 months (190 days) and compared between treatment groups using a Mantel-Haenszel chi-square stratified on intended treatment duration. Cumulative incidences of clinically relevant bleedings during the combined 3-month and 6-month period and up to the end of study are described by treatment group using the Kaplan Meier method."}, "[5]": {"tested_on": "patients with symptomatic pulmonary embolism with or without symptomatic deep venous thrombosis", "test": "CASSIOPEA (EFC6034) phase III clinical trial: symptomatic recurrent PE/DVT (efficacy)", "format": "in vivo, human", "experimental": "Patients with confirmed symptomatic PE with or without acute symptomatic DVT are eligible for this trial. Treatment with a therapeutic dose of any LMWH or UFH or fondaparinux is allowed only within the 36 hours immediately preceding randomization. Randomization is performed as soon as the diagnosis of PE (and DVT if concomitant suspected symptomatic DVT) is confirmed.\nas §1\nPatients in the 3-month stratum have an additional 13-week observational period after cessation of study treatment. Patients in the 6-month stratum have a 13-week up to 26-week observational period.\nInjections of SSR126517E (or its placebo) is started 12 h after the last post-randomization enoxaparin administration. SSR126517E (or its placebo) is administered s.c. once-weekly for a period of 3 or 6 months. All patients receive a first 0.5 ml injection (3.0 mg in the SSR126517E group). The following injections are also 0.5 ml, except in patients with severe renal insufficiency (defined as creatinine clearance <30 mL/min), who decrease to a dosage of 0.3 ml (1.8 mg in the SSR126517E group).\nThe primary efficacy outcome is symptomatic recurrent PE/DVT (fatal or not), as validated by the CIAC, within 99 days for patients from both strata (3- and 6-month treatments).\nA secondary efficacy outcome for patients in the 6-month stratum is symptomatic recurrent PE/DVT, as validated by the CIAC, within 190 days.\nThere are 2 additional efficacy outcomes: • the time to first symptomatic recurrent PE/DVT (fatal or non fatal) within the patient's treatment period, i.e. a combined analysis of the 3-and 6-month strata patients; • the separate components of the efficacy outcomes within 99 days (all patients) and within 190 days (6-month stratum patients only).\nThe definitions to confirm a suspected symptomatic episode of recurrent PE/DVT are as follows:\nEfficacy analyses are performed on the—All-randomized—population (patients with a patient number and an allocated treatment number recorded in the IVRS database).\nThe secondary efficacy outcome (VTE recurrence within 190 days) for patients in the 6-month stratum is analyzed using the same method and applying the same non-inferiority margin.\nTime to first symptomatic recurrent PE/DVT within the patient's study treatment period for all patients is analyzed using Cox's proportional hazards model, stratified on intended treatment duration."}, "[6]": {"conditions": "combined 3-month and 6-month periods, time-to-event analysis (Kaplan-Meier)"}, "[7]": {"conditions": "treatment period plus 3 to 6-month post-treatment follow-up (up to end of study)"}, "[8]": {"conditions": "Randomized population, All patients"}, "[9]": {"conditions": "Randomized population, Patients with VKA beyond D99/D190"}, "[10]": {"conditions": "Randomized population, Patients with no VKA beyond D99/D190"}, "[11]": {"conditions": "Randomized population, or death for which PE could not be ruled out"}}}
{"compound": "CO[C@H]1O[C@H](COS(=O)(=O)O)[C@@H](O[C@@H]2O[C@@H](C(=O)O)[C@@H](O[C@H]3O[C@H](COS(=O)(=O)O)[C@@H](O[C@@H]4O[C@H](C(=O)O)[C@@H](O[C@H]5O[C@H](COS(=O)(=O)O)[C@@H](OC)[C@H](OC)[C@H]5OC)[C@H](OC)[C@H]4OC)[C@H](OS(=O)(=O)O)[C@H]3OS(=O)(=O)O)[C@H](OC)[C@H]2OC)[C@H](OS(=O)(=O)O)[C@H]1OS(=O)(=O)O", "note": "[idraparinux]", "values": [{"measurement": "Outcome in patients with pulmonary embolism", "setting": "[1]", "result": "apparent failure"}]}
{"compound": "CC(=O)CC(c1ccccc1)c1c(O)c2ccccc2oc1=O", "note": "(stereo not drawn) [Warfarin, warfarin, reference compound]", "values": [{"measurement": "PE, DVT or major bleeding in the combined 3-month and 6-month period: Patients with event", "setting": "[2]", "result": "98 (6.1%) n (%)"}, {"measurement": "PE, DVT or major bleeding up to the end of study: Patients with event", "setting": "[2]", "result": "150 (9.4%) n (%)"}, {"measurement": "Patients who died on study", "setting": "[3]", "result": 5.3, "unit": "%"}, {"measurement": "Clinically relevant bleedings up to Day 190", "setting": "[4]; 6-month stratum", "result": 8.1, "unit": "%"}, {"measurement": "Fatal bleeding within 190 days from randomization: Patients with event", "setting": "[4]; 6-month stratum", "result": "5 (0.4%) n (%)"}, {"measurement": "Intracranial haemorrhage (fatal or not) within 190 days from randomization: Patients with event", "setting": "[4]; 6-month stratum", "result": "6 (0.5%) n (%)"}, {"measurement": "Major bleeding within 190 days from randomization: Patients with event", "setting": "[4]; 6-month stratum", "result": "36 (2.8%) n (%)"}, {"measurement": "Patients who experienced a major bleeding up to Day 190", "setting": "[4]; 6-month stratum", "result": 2.8, "unit": "%"}, {"measurement": "Any clinically relevant bleeding within 99 days from randomization: Patients with event", "setting": "[4]; Randomized population", "result": "106 (6.6%) n (%)"}, {"measurement": "Fatal bleeding within 99 days from randomization: Patients with event", "setting": "[4]; Randomized population", "result": "6 (0.4%) n (%)"}, {"measurement": "Intracranial haemorrhage (fatal or not) within 99 days from randomization: Patients with event", "setting": "[4]; Randomized population", "result": "7 (0.4%) n (%)"}, {"measurement": "Major bleeding within 99 days from randomization: Patients with event", "setting": "[4]; Randomized population", "result": "39 (2.4%) n (%)"}, {"measurement": "Cumulative incidence of clinically relevant bleeding at Day 99", "setting": "[4]; [6]", "result": 6.7, "unit": "%"}, {"measurement": "Cumulative incidence of clinically relevant bleeding at Day 190", "setting": "[4]; [6]", "result": 9.1, "unit": "%"}, {"measurement": "Cumulative incidence rate of clinically relevant bleeding at Day 360", "setting": "[4]; [7]", "result": 10.0, "unit": "%"}, {"measurement": "Incidence of clinically relevant bleeding up to Day 99", "setting": "[4]; up to Day 99", "result": 6.6, "unit": "%"}, {"measurement": "Patients who experienced a major bleeding up to Day 99", "setting": "[4]; up to Day 99", "result": 2.4, "unit": "%"}, {"measurement": "DVT only within 190 days from randomization: Patients with event", "setting": "[5]; 6-month stratum", "result": "17 (1.3%) n (%)"}, {"measurement": "Non-fatal PE within 190 days from randomization: Patients with event", "setting": "[5]; 6-month stratum", "result": "10 (0.8%) n (%)"}, {"measurement": "Symptomatic recurrent PE/DVT (fatal or not) from randomization to end of study: Patients with event", "setting": "[5]; 6-month stratum, All patients", "result": "76 (6.0%) n (%)"}, {"measurement": "Symptomatic recurrent PE/DVT (fatal or not) from randomization to end of study: Patients with event", "setting": "[5]; 6-month stratum, Patients with VKA beyond D190", "result": "37 (9.1%) n (%)"}, {"measurement": "Symptomatic recurrent PE/DVT (fatal or not) from randomization to end of study: Patients with event", "setting": "[5]; 6-month stratum, Patients with no VKA beyond D190", "result": "39 (4.5%) n (%)"}, {"measurement": "Fatal PE within 190 days from randomization: Patients with event", "setting": "[5]; 6-month stratum, or death for which PE could not be ruled out", "result": "9 (0.7%) n (%)"}, {"measurement": "Patients who experienced DVT up to Day 190", "setting": "[5]; 6-month stratum, up to Day 190", "result": 1.3, "unit": "%"}, {"measurement": "DVT only up to the end of study: Patients with event", "setting": "[5]; Randomized population", "result": "31 (1.9%) n (%)"}, {"measurement": "DVT only within 99 days from randomization: Patients with event", "setting": "[5]; Randomized population", "result": "18 (1.1%) n (%)"}, {"measurement": "Non-fatal PE up to the end of study: Patients with event", "setting": "[5]; Randomized population", "result": "41 (2.6%) n (%)"}, {"measurement": "Non-fatal PE within 99 days from randomization: Patients with event", "setting": "[5]; Randomized population", "result": "9 (0.6%) n (%)"}, {"measurement": "Symptomatic recurrent PE/DVT (fatal or not) within 190 days from randomization: Patients with event", "setting": "[5]; Randomized population in the 6-month stratum", "result": "36 (2.8%) n (%)"}, {"measurement": "Symptomatic recurrent PE/DVT (fatal or not) from D100/D191 to end of study: Patients with event", "setting": "[5]; [8]", "result": "47 (3.1%) n (%)"}, {"measurement": "Symptomatic recurrent PE/DVT (fatal or not) from randomization to end of study: Patients with event", "setting": "[5]; [8]", "result": "97 (6.1%) n (%)"}, {"measurement": "Symptomatic recurrent PE/DVT (fatal or not) from D100/D191 to end of study: Patients with event", "setting": "[5]; [9]", "result": "32 (6.6%) n (%)"}, {"measurement": "Symptomatic recurrent PE/DVT (fatal or not) from randomization to end of study: Patients with event", "setting": "[5]; [9]", "result": "45 (9.3%) n (%)"}, {"measurement": "Symptomatic recurrent PE/DVT (fatal or not) from D100/D191 to end of study: Patients with event", "setting": "[5]; [10]", "result": "15 (1.5%) n (%)"}, {"measurement": "Symptomatic recurrent PE/DVT (fatal or not) from randomization to end of study: Patients with event", "setting": "[5]; [10]", "result": "52 (4.6%) n (%)"}, {"measurement": "Fatal PE up to the end of study: Patients with event", "setting": "[5]; [11]", "result": "25 (1.6%) n (%)"}, {"measurement": "Fatal PE within 99 days from randomization: Patients with event", "setting": "[5]; [11]", "result": "16 (1.0%) n (%)"}, {"measurement": "Symptomatic recurrent PE/DVT (fatal or not) within 99 days from randomization: Patients with event", "setting": "[5]; Randomized population, within 99 days", "result": "43 (2.7%) n (%)"}, {"measurement": "Cumulative incidence of symptomatic recurrent PE/DVT at Day 99", "setting": "[5]; [6]", "result": 2.7, "unit": "%"}, {"measurement": "Cumulative incidence of symptomatic recurrent PE/DVT at Day 190", "setting": "[5]; [6]", "result": 3.4, "unit": "%"}, {"measurement": "Cumulative incidence rate of symptomatic recurrent PE/DVT at Day 360", "setting": "[5]; [7]", "result": 7.2, "unit": "%"}, {"measurement": "Patients who experienced DVT up to Day 99", "setting": "[5]; up to Day 99", "result": 1.1, "unit": "%"}, {"measurement": "Patients who experienced DVT up to the end of study", "setting": "[5]; up to the end of study", "result": 1.9, "unit": "%"}, {"measurement": "Patients who experienced non-fatal PE up to the end of study", "setting": "[5]; up to the end of study", "result": 2.6, "unit": "%"}]}
